For eight molecules, GI50 and TGI results are on record in PubChem BioAssay (NCI).

Structures are written as SMILES.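 Protocol summary: plate cells (96-well), add compound at 5 concentrations, incubate 48 h, interpolate endpoints linearly. Abbreviation: GI50, concentration required for 50% inhibition of growth. Definition used: TGI = concentration required for complete inhibition of growth.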

Test systems include ACHN renal; SF-268 CNS; MALME-3M melanoma; UO-31 renal; SK-MEL-28 melanoma; RXF 393 renal; SN12C renal; NCI-H226 lung; KM12 colon; HCT-116 colon.
What all share (assay): NCI-60 cell line screen, 48 h

Consider `CSC(=S)NCc1cn(C)c2ccccc12`, for which the GI50 in the assay with ACHN renal was 21.9 µM; in the assay on SF-268 CNS it was 23.5 µM; with MALME-3M melanoma it was 24.6 µM; with UO-31 renal, 22.3 µM; in the assay on SK-MEL-28 melanoma, more than 100 µM; with RXF 393 renal, 17.9 µM. Besides, the GI50 in the assay on SN12C renal is 26.9 µM; with NCI-H226 lung, 23.4 µM; in the assay on KM12 colon, 33.1 µM; in the assay with HCT-116 colon, 50.5 µM. In addition, the TGI in the assay on ACHN renal was more than 100 µM; in the assay with SF-268 CNS, 68 µM; with MALME-3M melanoma, 92.4 µM; in the assay with UO-31 renal, more than 100 µM; in the assay on SK-MEL-28 melanoma, more than 100 µM; with RXF 393 renal it was 59.6 µM. Moreover, the TGI is 80.8 µM in the assay with SN12C renal, 64.8 µM in the assay with NCI-H226 lung, more than 100 µM with KM12 colon and more than 100 µM in the assay on HCT-116 colon.

Turning to `COc1cccc(C=NC23CC4CC(CC(C4)C2)C3)c1`, the TGI in the assay with ACHN renal, with SF-268 CNS, in the assay on MALME-3M melanoma, in the assay on UO-31 renal, with SK-MEL-28 melanoma and in the assay with RXF 393 renal was more than 100 µM each time. The TGI with SN12C renal, in the assay with NCI-H226 lung, in the assay on KM12 colon and in the assay with HCT-116 colon was more than 100 µM throughout.

As to `COc1ccc(N=c2nc3sc4cc(Cl)ccc4n3c(N)c2C#N)cc1`, the GI50 with ACHN renal is 8.66 µM; in the assay on SF-268 CNS, 4.29 µM; in the assay on MALME-3M melanoma, 2.25 µM; in the assay with UO-31 renal, 18.3 µM; in the assay on SK-MEL-28 melanoma, 2.92 µM; in the assay with RXF 393 renal it was 5.27 µM. In addition, the GI50 in the assay on SN12C renal is 15.3 µM; in the assay on NCI-H226 lung it was 1.92 µM; with KM12 colon, 2.47 µM; in the assay on HCT-116 colon, 6.5 µM. In addition, the TGI was more than 100 µM with ACHN renal; more than 100 µM in the assay with SF-268 CNS; 7.42 µM with MALME-3M melanoma; more than 100 µM in the assay with UO-31 renal; 22.9 µM in the assay with SK-MEL-28 melanoma; more than 100 µM in the assay with RXF 393 renal. The TGI with SN12C renal was more than 100 µM; in the assay on NCI-H226 lung it was 7.99 µM; with KM12 colon, 6.89 µM; in the assay on HCT-116 colon it was more than 100 µM.

In the case of `CC(C)(C)OC(=O)NCCCCCCCCCCCCn1c2c(c3ccccc3c1=O)C(=O)c1ccccc1-2`, the GI50 with ACHN renal is 21.1 µM; with SF-268 CNS, 26.8 µM; in the assay with MALME-3M melanoma it was more than 100 µM; with UO-31 renal, more than 100 µM; in the assay with SK-MEL-28 melanoma it was more than 100 µM; in the assay with RXF 393 renal, 17.8 µM. Also, the GI50 in the assay on SN12C renal is more than 100 µM; in the assay on NCI-H226 lung, 58.1 µM; in the assay with KM12 colon it was more than 100 µM; with HCT-116 colon it was more than 100 µM. Moreover, the TGI in the assay on ACHN renal was 54.7 µM; with SF-268 CNS, more than 100 µM; in the assay with MALME-3M melanoma, more than 100 µM; with UO-31 renal, more than 100 µM; with SK-MEL-28 melanoma it was more than 100 µM; with RXF 393 renal, 49.2 µM. The TGI in the assay on SN12C renal, in the assay on NCI-H226 lung, with KM12 colon and with HCT-116 colon was more than 100 µM throughout.

Consider `Cn1cc(-c2csc(-c3ccc(Cl)cc3)n2)c2cccnc21`, for which the GI50 with ACHN renal is 14.1 µM; in the assay on SF-268 CNS, 15.4 µM; in the assay with MALME-3M melanoma, 14.8 µM; in the assay with UO-31 renal, 13.6 µM; with SK-MEL-28 melanoma, 15.2 µM; with RXF 393 renal, 13.9 µM. Further, the GI50 in the assay with SN12C renal was 14.8 µM; in the assay on NCI-H226 lung, 14.8 µM; in the assay on KM12 colon it was 13 µM; in the assay with HCT-116 colon, 12.8 µM. Besides, the TGI turned out to be 29.2 µM in the assay on ACHN renal; 34 µM in the assay with SF-268 CNS; 42.2 µM with MALME-3M melanoma; 38.6 µM in the assay on UO-31 renal; 29.4 µM with SK-MEL-28 melanoma; 39.8 µM in the assay on RXF 393 renal. In addition, the TGI in the assay on SN12C renal was 32.5 µM; in the assay with NCI-H226 lung, 43.6 µM; with KM12 colon, 27.6 µM; in the assay on HCT-116 colon, 25.4 µM.

Regarding `COc1ccc2c(c1)[n+](=O)c(/C=C/C(=O)c1cc(OC)c(OC)c(OC)c1)c(C)n2[O-]`, the GI50 is 5.66 µM in the assay on ACHN renal; 6.11 µM in the assay with SF-268 CNS; 17 µM in the assay with MALME-3M melanoma; 3.57 µM in the assay on UO-31 renal; 12.3 µM with SK-MEL-28 melanoma; 3.98 µM in the assay on RXF 393 renal. Moreover, the GI50 was 6.33 µM in the assay with SN12C renal, 22.1 µM with NCI-H226 lung, 14.4 µM with KM12 colon and 3.23 µM in the assay with HCT-116 colon. For the same molecule, the TGI in the assay on ACHN renal was 23.6 µM; in the assay with SF-268 CNS, 45.6 µM; with MALME-3M melanoma, more than 100 µM; in the assay with UO-31 renal, more than 100 µM; with SK-MEL-28 melanoma, 50.9 µM; in the assay with RXF 393 renal, more than 100 µM. In addition, the TGI is 48.5 µM in the assay with SN12C renal, more than 100 µM in the assay with NCI-H226 lung, 60.5 µM with KM12 colon and 14.2 µM in the assay with HCT-116 colon.

For `CCN(CC)c1ccc(/C=N/N=C(N)N)cc1`, the GI50 in the assay on ACHN renal is 12.8 µM; in the assay on SF-268 CNS, 5.43 µM; in the assay with MALME-3M melanoma, 4.45 µM; with UO-31 renal it was 6.78 µM; with SK-MEL-28 melanoma it was 6.27 µM; with RXF 393 renal it was 2.85 µM. The GI50 is 4.88 µM in the assay with SN12C renal, 3.84 µM in the assay on NCI-H226 lung, 3.47 µM in the assay on KM12 colon and 4.85 µM in the assay on HCT-116 colon. Besides, the TGI is 64.8 µM in the assay on ACHN renal; 82.5 µM in the assay on SF-268 CNS; 18.7 µM in the assay with MALME-3M melanoma; 38.9 µM in the assay with UO-31 renal; 20.3 µM with SK-MEL-28 melanoma; 11.7 µM with RXF 393 renal. Further, the TGI was 27.2 µM with SN12C renal, 22.8 µM in the assay on NCI-H226 lung, 16.4 µM in the assay with KM12 colon and 18.5 µM in the assay on HCT-116 colon.

For the molecule `COC(=O)C1=C(O)c2cc(OC)c(OC)c(OC)c2C(c2ccc3c(c2)OCO3)[C@@H]1C(=O)OC` (stereo not given in full), the TGI with ACHN renal was more than 100 µM; with SF-268 CNS it was more than 100 µM; with MALME-3M melanoma, more than 100 µM; in the assay on UO-31 renal it was more than 100 µM; in the assay with SK-MEL-28 melanoma, more than 100 µM; with RXF 393 renal, 6.26 µM. Moreover, the TGI with SN12C renal, in the assay with NCI-H226 lung, in the assay on KM12 colon and in the assay on HCT-116 colon was more than 100 µM each time.
